# pIC50: −log10 of the molar value.
# Biological target: T1, recombinant autotaxin (Homo sapiens, UniProt Q13822)
# T1 construct: made in house; host or cells: Hi5 insect cells (baculovirus)
# Experiment: Autotaxin test (enzyme test), Amplex Red fluorescence
# Assay type: biochemical
# Settings: substrate LPC 75 μM, Amplex Red detection, read-out: IC50 (autotaxin inhibition, enzyme test)
# Procedure: Autotaxin Inhibition (Enzyme Test)
# Autotaxin Test (Enzyme Test)
# The autotaxin activity is measured indirectly using Amplex Red reagent. Amplex Red is measured here as fluorogenic indicator for the H2O2 formed. In detail, autotaxin converts the substrate lysophosphatidylcholine (LPC) into phosphocholine and lysophosphatidylic acid (LPA). After this reaction, the phosphocholine is reacted with alkaline phosphatase to give inorganic phosphate and choline. In the next step, choline is oxidised by choline oxidase to give betaine, with formation of H2O2. H2O2 reacts with Amplex Red reagent in the presence of peroxidase (horseradish peroxidase) in a 1:1 stoichiometry and forms the highly fluorescent resorufin. The fluorescence is measured in a reaction-dependent kinetic mode in order that fluorescent signals from possible other fluorescent substances which are not involved in the reaction can be corrected out.
# 1.5 μl of a standard solution or of the test substances (substances with the name A(n)) in individual concentrations dissolved in 20 mM Hepes pH 7.2 with a maximum of 7.7% of DMSO are pre-incubated together with 10 μl (16 ng) of highly purified recombinant autotaxin in a black microtitre plate provided with 384 wells at 22° C. for 30 min. The reaction is then initiated by addition of 5 μl of L-α-lysophosphatidylcholine (LPC), where the final concentration of LPC is 75 μM. The mixture is incubated at 37° C. for 90 min. After the incubation, Amplex Red reagent, peroxidase (horseradish peroxidase) and choline oxidase is added, and the fluorescence is immediately measured at 612 nm with excitation of 485 nm in a “Tecan Ultra multimode” reader. The activity of autotaxin is calculated indirectly via detection of the H2O2 formed. • Material: • Microtitre plate: PS microplate, 384 wells, small volume, black Corning, Cat #3677 • Protein: recombinant autotaxin (Baculovirale Hi5 Expression) • Substrate: L-α-lysophosphatidylcholine (chicken egg)); Avanti Polar Lipids #830071 P • Standard: C14 LPA, Avanti Polar Lipids, Cat #857120P • Detection reagent: Amplex Red reagent; Invitrogen #A12222; dissolved in 1.923 ml of DMSO peroxidase type VI-A (horseradish) from Sigma #P6782; dissolved in 7.45 ml of test buffer, choline oxidase; Sigma #C5896; dissolved in 2.47 ml of test buffer • Detection reagent mix: 1:100 dilution of Amplex Red reagent in test buffer • Test buffer: 200 mM Tris HCl, Merck, Cat #1.08219, pH 7.9, 0.1% of BSA, lipid-free, Roche Cat #775835
row,pIC50,SMILES
1,5.00 to 6.00,"CCc1ccc(NC(=O)Nc2[nH]c(COc3ccc(CC(=O)O)cc3)nc2C(N)=O)cc1 [Compound A61, (4-{4-Carbamoyl-5-[3-(4-ethylphenyl)ureido]-1H-imidazol-2-ylmethoxy}phenyl)acetic acid]"
2,5.00 to 6.00,"Cc1cc(Cl)ccc1NC(=O)Nc1[nH]c(COc2ccc(CC(=O)O)cc2)nc1C(N)=O [Compound A62, (4-{4-Carbamoyl-5-[3-(4-chloro-2-methylphenyl)-ureido]-1H-imidazol-2-ylmethoxy}phenyl)acetic acid]"
3,< 5.00,"COc1cc(NC(=O)Nc2[nH]c(COc3ccc(CC(=O)O)cc3)nc2C(N)=O)cc(OC)c1 [Compound A63, (4-{4-Carbamoyl-5-[3-(3,5-dimethoxyphenyl)-ureido]-1H-imidazol-2-ylmethoxy}phenyl)acetic acid]"
4,< 5.00,"NC(=O)c1nc(COc2ccc(CC(=O)O)cc2)[nH]c1NC(=O)Nc1ccc(F)c(C(F)(F)F)c1 [Compound A64, (4-{4-Carbamoyl-5-[3-(4-fluoro-3-trifluoromethyl-phenyl)ureido]-1 H-imidazol-2-ylmethoxy}phenyl)-acetic acid]"
5,< 5.00,"NC(=O)c1nc(Cc2ccc(C(=O)O)s2)[nH]c1NC(=O)Nc1cccc(C(F)(F)F)c1 [Compound A65, 5-{4-Carbamoyl-5-[3-(3-trifluoromethylphenyl)-ureido]-1H-imidazol-2-ylmethyl}thiophene-2-carboxylic acid]"
6,5.00 to 6.00,"NC(=O)c1nc(Cc2ccc(C(=O)O)s2)[nH]c1NC(=O)Nc1ccc(C(F)(F)F)cc1 [Compound A66, 5-{4-Carbamoyl-5-[3-(4-trifluoromethylphenyl)-ureido]-1H-imidazol-2-ylmethyl}thiophene-2-carboxylic acid]"
7,< 5.00,"Cc1ccccc1NC(=O)Nc1[nH]c(Cc2ccc(C(=O)O)s2)nc1C(N)=O [Compound A67, 5-[4-Carbamoyl-5-(3-o-tolylureido)-1H-imidazol 2-ylmethyl]thiophene-2-carboxylic acid]"
8,5.00 to 6.00,"CC(C)c1ccc(NC(=O)Nc2[nH]c(Cc3ccc(C(=O)O)s3)nc2C(N)=O)cc1 [Compound A68, 5-{4-Carbamoyl-5-[3-(4-isopropylphenyl)ureido]-1H-imidazol-2-ylmethyl}thiophene-2-carboxylic acid]"
9,< 5.00,"Cc1ccc(NC(=O)Nc2[nH]c(Cc3ccc(C(=O)O)s3)nc2C(N)=O)cc1 [Compound A69, 5-[4-Carbamoyl-5-(3-p-tolylureido)-1H-imidazol 2-ylmethyl]thiophene-2-carboxylic acid]"
10,5.00 to 6.00,"Cc1ccc(NC(=O)Nc2[nH]c(Cc3ccc(C(=O)O)s3)nc2C(N)=O)c(C)c1 [Compound A71, 5-{4-Carbamoyl-5-[3-(2,4-dimethylphenyl)-ureido]-1H-imidazol-2-ylmethyl}thiophene-2-carboxylic acid]"
11,5.00 to 6.00,"CCc1ccc(NC(=O)Nc2[nH]c(Cc3ccc(C(=O)O)s3)nc2C(N)=O)cc1 [Compound A72, 5-{4-Carbamoyl-5-[3-(4-ethylphenyl)ureido]-1H-imidazol-2-ylmethyl}thiophene-2-carboxylic acid]"
12,< 5.00,"Cc1cc(NC(=O)Nc2[nH]c(Cc3ccc(C(=O)O)s3)nc2C(N)=O)ccc1F [Compound A73, 5-{4-Carbamoyl-5-[3-(4-fluoro-3-methylphenyl)-ureido]-1H-imidazol-2-ylmethyl}thiophene-2-carboxylic acid]"
13,5.00 to 6.00,"Cc1cc(Cl)ccc1NC(=O)Nc1[nH]c(Cc2ccc(C(=O)O)s2)nc1C(N)=O [Compound A74, 5-{4-Carbamoyl-5-[3-(4-chloro-2-methylphenyl)-ureido]-1H-imidazol-2-ylmethyl}thiophene-2-carboxylic acid]"
14,< 5.00,"NC(=O)c1nc(Cc2ccc(C(=O)O)s2)[nH]c1NC(=O)Nc1ccc(F)c(C(F)(F)F)c1 [Compound A75, 5-{4-Carbamoyl-5-[3-(4-fluoro-3-trifluoromethyl-phenyl)ureido]-1H-imidazol-2-ylmethyl}-thiophene-2-carboxylic acid]"
15,< 5.00,"CCCCc1ccc(NC(=O)Nc2[nH]c(Cc3ccc(C(=O)NC4CCCCC4)o3)nc2C(N)=O)cc1 [Compound A77, 5-[3-(4-Butylphenyl)ureido]-2-(5-cyclohexyl-carbamoylfuran-2-ylmethyl)-1H-imidazole-4-carboxamide]"
16,< 5.00,"CCCCc1ccc(NC(=O)Nc2[nH]c(Cc3ccc(C(=O)N(CC)CC)o3)nc2C(N)=O)cc1 [Compound A78, 5-[3-(4-Butylphenyl)ureido]-2-(5-diethyl-carbamoylfuran-2-ylmethyl)-1H-imidazole-4-carboxamide]"
17,< 5.00,"CCCCc1ccc(NC(=O)Nc2[nH]c(Cc3ccc(C(=O)N(C)CCCC)o3)nc2C(N)=O)cc1 [Compound A79, 2-[5-(Butylmethylcarbamoyl)furan-2-ylmethyl]-5-[3-(4-butylphenyl)ureido]-1H-imidazole-4-carboxamide]"
18,< 5.00,"CCCCc1ccc(NC(=O)Nc2[nH]c(Cc3ccc(C(=O)N(CCCC)CCCC)o3)nc2C(N)=O)cc1 [Compound A80, 5-[3-(4-Butylphenyl)ureido]-2-(5-dibutyl-carbamoylfuran-2-ylmethyl)-1H-imidazole-4-carboxamide]"
19,< 5.00,"CCCCc1ccc(NC(=O)Nc2[nH]c(Cc3ccc(C(=O)N4CCCC4)o3)nc2C(N)=O)cc1 [Compound A81, 5-[3-(4-Butylphenyl)ureido]-2-[5-(pyrrolidine-1-carbonyl)furan-2-ylmethyl]-1H-imidazole-4-carboxamide]"
20,< 5.00,"CCCCc1ccc(NC(=O)Nc2[nH]c(Cc3ccc(C(=O)N4C[C@@H](C)O[C@@H](C)C4)o3)nc2C(N)=O)cc1 [Compound A82, 5-[3-(4-Butylphenyl)ureido]-2-[5-((5R,6S)-2,6-dimethylmorpholine-4-carbonyl)furan-2-yl-methyl]-1H-imidazole-4-carboxamide]"
21,< 5.00,"CCCCc1ccc(NC(=O)Nc2[nH]c(Cc3ccc(C(=O)N4CCOCC4)o3)nc2C(N)=O)cc1 [Compound A83, 5-[3-(4-Butylphenyl)ureido]-2-[5-(morpholine-4-carbonyl)furan-2-ylmethyl]-1H-imidazole-4-carboxamide]"
22,5.00 to 6.00,"CCCCc1ccc(NC(=O)Nc2[nH]c(Cc3ccc(C(=O)N(C)c4ccccc4)o3)nc2C(N)=O)cc1 [Compound A84, 5-[3-(4-Butylphenyl)ureido]-2-[5-(methylphenyl-carbamoyl)furan-2-ylmethyl]-1H-imidazole-4-carboxamide]"
23,5.00 to 6.00,"CCCCc1ccc(NC(=O)Nc2[nH]c(Cc3ccc(C(=O)N4CCN(C)CC4)o3)nc2C(N)=O)cc1 [Compound A85, 5-[3-(4-Butylphenyl)ureido]-2-[5-(4-methyl-piperazine-1-carbonyl)furan-2-ylmethyl]-1H-imidazole-4-carboxamide]"
24,< 5.00,"CCCCc1ccc(NC(=O)Nc2[nH]c(Cc3ccc(C(=O)N4CCN(c5ccccc5)CC4)o3)nc2C(N)=O)cc1 [Compound A86, 5-[3-(4-Butylphenyl)ureido]-2-[5-(4-phenyl-piperazine-1-carbonyl)furan-2-ylmethyl]-1H-imidazole-4-carboxamide]"
25,< 5.00,"CCCCc1ccc(NC(=O)Nc2[nH]c(Cc3ccc(C(=O)N4CCC(C)CC4)o3)nc2C(N)=O)cc1 [Compound A87, 5-[3-(4-Butylphenyl)ureido]-2-[5-(4-methyl-piperidine-1-carbonyl)furan-2-ylmethyl]-1H-imidazole-4-carboxamide]"
26,< 5.00,"CCCCc1ccc(NC(=O)Nc2[nH]c(Cc3ccc(C(=O)N4CCCCC4)o3)nc2C(N)=O)cc1 [Compound A88, 5-[3-(4-Butylphenyl)ureido]-2-[5-(piperidine-1-carbonyl)furan-2-ylmethyl]-1H-imidazole-4-carboxamide]"
27,< 5.00,"CCCCc1ccc(NC(=O)Nc2[nH]c(Cc3ccc(C(=O)N(C)CCC)o3)nc2C(N)=O)cc1 [Compound A90, 5-[3-(4-Butylphenyl)ureido]-2-[5-(methylpropyl-carbamoyl)furan-2-ylmethyl]-1H-imidazole-4-carboxamide]"
28,5.00 to 6.00,"CCCCc1ccc(NC(=O)Nc2[nH]c(Cc3ccc(C(=O)N4CCC(CCO)CC4)o3)nc2C(N)=O)cc1 [Compound A91, 5-[3-(4-Butylphenyl)ureido]-2-{5-[4-(2-hydroxy-ethyl)piperidine-1-carbonyl]furan-2-ylmethyl}-1H-imidazole-4-carboxamide]"
29,< 5.00,"CC(C)c1ccccc1NC(=O)Nc1[nH]c(Cc2ccc(C(=O)O)cc2)nc1C(N)=O [Compound A92, 4-{4-Carbamoyl-5-[3-(2-isopropylphenyl)ureido]-1H-imidazol-2-ylmethyl}benzoic acid]"

# From patent publication US20100249132A1, “IMIDAZOLE DERIVATIVES” (MERCK PATENT GESELLSCHAFT MIT BESCHRANKTER HAFTUNG, priority 2007, published 2010)
